# According to patent publication US20080032978A1, “SOLUBLE EPOXIDE HYDROLASE INHIBITORS” (Arete Therapeutics, Inc., priority 2006, published 2008):
# Key:
# [1] = system: soluble epoxide hydrolase (sEH); experiment: Fluorescent assay for mouse and human soluble epoxide hydrolase (CMNPC substrate); format: biochemical
# Description: Fluorescent Assay for Mouse and Human Soluble Epoxide Hydrolase Recombinant mouse sEH (MsEH) and human sEH (HsEH) were produced in a baculovirus expression system as previously reported. Grant et al., J. Biol. Chem., 268:17628-17633 (1993); Beetham et al., Arch. Biochem. Biophys., 305:197-201 (1993). The expressed proteins were purified from cell lysate by affinity chromatography. Wixtrom et al., Anal. […] Protein concentration was quantified using the Pierce BCA assay using bovine serum albumin as the calibrating standard. […] Solutions: Bis/Tris HCl 25 mM 7.0 containing 0.1 mg/mL of BSA (buffer […] at 0.25 mM in DMSO. Mother solution of enzyme in buffer A (Mouse sEH at 6 μg/mL and Human sEH at 5 μg/mL). Inhibitor dissolved in DMSO at the appropriate concentration. Protocol: In a black 96 well plate, fill all the wells with 150 μL of buffer A. Add 2 μL of DMSO in well A2 and A3, and then add 2 μL of inhibitor solution in A1 and A4 through A12. Add 150 μL of buffer A in a row A, then mix several time and transfer 150 μL to row B. Repeat this operation up to row H. The 150 μL removed from row H go to the trash. Add 20 μL of buffer A in column 1 and 2, then add 20 μL of enzyme solution to column 3 to 12. Incubate the plate for 5 minutes in the plate reader at 30° C. During incubation prepare the working solution of substrate by mixing 3.68 mL of buffer A (4×0.920 mL) with 266 μL (2×133 μL) of substrate solution). At t=0, add 30 μL of working substrate solution with multi-channel pipette labeled “Briggs 303” and start the reading ([S]final: 5 μM). Read with ex: 330 nm (20 nm) and em: 465 nm (20 nm) every 30 second for 10 minutes. The velocities are used to analyze and calculate the IC50s.
Compound,melting point [°C],% I ([1]; Conc of I 500 nM) [%],% I ([1]; Conc of I 50 nM) [%],% I ([1]; Conc of I 5000 nM) [%]
"O=C(Nc1ccc(Cl)cc1)Nc1ccc(C(=O)N2CCC(C(=O)O)CC2)cc1 [Compound 9, 1-{4-[3-(4-Chloro-phenyl)-ureido]-benzoyl}-piperidine-4-carboxylic acid]",238 to 241,64,–,–
"COCCN1CCN(C(=O)c2ccc(NC(=O)Nc3ccc(OC(F)(F)F)cc3)cc2)CC1 [Compound 28, 1-{4-[4-(2-Methoxy-ethyl)-piperazine-1-carbonyl]-phenyl}-3-(4-trifluoromethoxy-phenyl)-urea]",235 to 240,–,91,–
"CN1CCN(C(=O)c2ccc(NC(=O)NC34CC5CC(CC(C5)C3)C4)cc2)CC1 [Compound 5, 1-Adamantan-1-yl-3-[4-(4-methyl-piperazine-1-carbonyl)-phenyl]-urea]",190 to 196,96,–,–
"CN(C)CCN(C)C(=O)c1ccc(NC(=O)NC23CC4CC(CC(C4)C2)C3)cc1 [Compound 37, 4-(3-Adamantan-1-yl-ureido)-N-(2-dimethylamino-ethyl)-N-methyl-benzamide]",150 to 156,88,–,–
"O=C(Nc1ccc(C(=O)N2CCC(C(=O)O)CC2)cc1)NC12CC3CC(CC(C3)C1)C2 [Compound 12, 1-[4-(3-Adamantan-1-yl-ureido)-benzoyl]-piperidine-4-carboxylic acid]",272 to 275,–,–,99
"O=C(Nc1ccc(C(F)(F)F)cc1)Nc1cccc(C(=O)N2CCC(C(=O)O)CC2)c1 [Compound 29, 1-{3-[3-(4-Trifluoromethyl-phenyl)-ureido]-benzoyl}-piperidine-4-carboxylic acid]",193 to 197,94,–,–
"COCCN1CCN(C(=O)c2ccc(NC(=O)NC34CC5CC(CC(C5)C3)C4)cc2)CC1 [Compound 4, 1-Adamantan-1-yl-3-{4-[4-(2-methoxy-ethyl)-piperazine-1-carbonyl]-phenyl}-urea]",191 to 194,96,–,–
"O=C(NC1CCCCC1)NC1CCC(C(=O)N2CCOCC2)CC1 (stereo not drawn) [Compound 40, 1-Cyclohexyl-3-[4-(morpholine-4-carbonyl)-cyclohexyl]-urea]",159 to 163,92,–,–
"CN(C)CCN(C)C(=O)c1cccc(NC(=O)NC23CC4CC(CC(C4)C2)C3)c1 [Compound 38, 3-(3-Adamantan-1-yl-ureido)-N-(2-dimethylamino-ethyl)-N-methyl-benzamide]",89 to 94,81,–,–
"CN1CCN(C(=O)c2ccc(NC(=O)Nc3ccc(OC(F)(F)F)cc3)cc2)CC1 [Compound 27, 1-[4-(4-Methyl-piperazine-1-carbonyl)-phenyl]-3-(4-trifluoromethoxy-phenyl)-urea]",–,–,84,–
"CN1CCN(C(=O)c2ccc(NC(=O)Nc3ccc(C(F)(F)F)cc3)cc2F)CC1 [Compound 30, 1-[3-Fluoro-4-(4-methyl-piperazine-1-carbonyl)-phenyl]-3-(4-trifluoromethyl-phenyl)-urea]",–,–,88,–
"CN(CC(=O)O)C(=O)C1CCC(NC(=O)NC23CC4CC(CC(C4)C2)C3)CC1 (stereo not drawn) [Compound 36, {[4-(3-Adamantan-1-yl-ureido)-cyclohexanecarbonyl]-methyl-amino}-acetic acid]",236 to 240,95,–,–
"O=C(Nc1ccc(C(F)(F)F)cc1)Nc1ccc(F)c(C(=O)N2CCOCC2)c1 [Compound 16, 1-[4-Fluoro-3-(morpholine-4-carbonyl)-phenyl]-3-(4-trifluoromethyl-phenyl)-urea]",–,–,87,–
"COCCN1CCN(C(=O)c2ccc(NC(=O)Nc3ccc(F)cc3)cc2)CC1 [Compound 25, 1-(4-Fluoro-phenyl)-3-{4-[4-(2-methoxy-ethyl)-piperazine-1-carbonyl]-phenyl}-urea]",248 to 250,77,–,–
"CN(CC(=O)N1CCOCC1)C(=O)c1ccc(NC(=O)Nc2ccc(C(F)(F)F)cc2)cc1 [Compound 39, N-Methyl-N-(2-morpholin-4-yl-2-oxo-ethyl)-4-[3-(4-trifluoromethyl-phenyl)-ureido]-benzamide]",226 to 233,86,–,–
"CN(CCN1CCOCC1)C(=O)c1ccc(NC(=O)Nc2ccc(C(F)(F)F)cc2)cc1 [Compound 41, N-Methyl-N-(2-morpholin-4-yl-ethyl)-4-[3-(4-trifluoromethyl-phenyl)-ureido]-benzamide]",–,–,93,–
"CN(CC(=O)O)C(=O)c1cccc(NC(=O)NC23CC4CC(CC(C4)C2)C3)c1 [Compound 7, {[3-(3-Adamantan-1-yl-ureido)-benzoyl]-methyl-amino}-acetic acid]",–,–,–,90
"O=C(NC1CCC(C(=O)N2CCOCC2)CC1)NC12CC3CC(CC(C3)C1)C2 (stereo not drawn) [Compound 11, 1-Adamantan-1-yl-3-[4-(morpholine-4-carbonyl)-cyclohexyl]-urea]",128 to 131,96,–,–
"O=C(Nc1ccc(Cl)cc1)Nc1cccc(C(=O)N2CCOCC2)c1 [Compound 3, 1-(4-Chloro-phenyl)-3-[3-(morpholine-4-carbonyl)-phenyl]-urea]",–,88,–,–
"O=C(Nc1ccc(F)cc1)Nc1ccc(C(=O)N2CCOCC2)cc1 [Compound 23, 1-(4-Fluoro-phenyl)-3-[4-(morpholine-4-carbonyl)-phenyl]-urea]",–,69,–,–
"O=C(Nc1ccc(C(F)(F)F)cc1)Nc1cccc(C(=O)N2CCOCC2)c1 [Compound 15, 1-[3-(Morpholine-4-carbonyl)-phenyl]-3-(4-trifluoromethyl-phenyl)-urea]",–,99,–,–
"CN(CC(=O)O)C(=O)c1ccc(NC(=O)NC23CC4CC(CC(C4)C2)C3)cc1 [Compound 6, {[4-(3-Adamantan-1-yl-ureido)-benzoyl]-methyl-amino}-acetic acid]",–,–,–,93
"CN1CCN(C(=O)c2cccc(NC(=O)Nc3ccc(C(F)(F)F)cc3)c2)CC1 [Compound 19, 1-[3-(4-Methyl-piperazine-1-carbonyl)-phenyl]-3-(4-trifluoromethyl-phenyl)-urea]",–,94,–,–
